{
  "source": "patent US20090118253A1",
  "about": "“COMPOSITIONS AND METHODS FOR TREATING DYSFUNCTIONAL UTERINE BLEEDING” (REPROS THERAPEUTICS INC., priority 2007, published 2009)",
  "key": {"[1]": {"assay": "Serum corticosterone in rats", "conditions": "CDB-4124 10 or 20 mg/kg, RU 486 10 mg/kg, progesterone 10 mg/kg"}, "[2]": {"system": "progesterone-induced endometrial glandular proliferation in rabbit uterus", "assay": "anti-McGinty and anti-Clauberg assays in the rabbit uterus", "type": "in vivo", "source_text": "Also given in Table 1 are the relative biological activities of the same compounds in the rabbit uterus by the anti-McGinty and anti-Clauberg assays. Compound CDB-2914 (listed at the end of the Table) was used as the control or reference compound (rabbit Biological Activity=1.00) for these experiments because results of experiments using CDB-2914 have been published before (Hild-Petito et al., 1996; Passaro et al., 1997; Reel et al., 1998; Lamer et al., 2000). For the anti-McGinty test, immature female rabbits received a subcutaneous injection of 5 μg estradiol in 10% ethanol/sesame oil daily for 6 consecutive days. On day 7, animals underwent sterile abdominal surgery to ligate a 3-4 cm segment of both uterine horns. The test compound in appropriate solvent was injected intraluminally into the ligated segment of one uterine horn and vehicle alone into the other. A stimulating dose of progesterone (267 μg/day) was administered subcutaneously to each rabbit daily for the next three days to induce endometrial proliferation. All animals were sacrificed at day 10 for removal of the uterus where a segment central to the ligatures was removed and fixed in 10% neutral buffered formalin and submitted for histological processing. Five micron sections stained with hematoxylin and cosin were evaluated microscopically for the degree of endometrial glandular proliferation. The percent inhibition of endometrial proliferation for each rabbit was calculated and the mean of the group of five animals recorded. For the Anti-Clauberg test, immature female rabbits received a subcutaneous injection of 5 μg estradiol in 10% ethanol/sesame oil daily for 6 consecutive days. On day 7, animals received progesterone by subcutaneous injection (160 μg/day) and the experimental compound in appropriate vehicle orally or subcutaneously for five consecutive days. One group of rabbits received progesterone only. Twenty-four hours after the last dose, all animals were sacrificed for removal of the uterus which was cleaned of all fat and connective tissue, weighed to the nearest 0.2 mg and placed in 10% neutral buffered formalin for subsequent histological processing. Five micron sections stained with hematoxylin and eosin were evaluated microscopically for the degree of endometrial glandular proliferation. The percent inhibition of endometrial proliferation at each dose level of the test compound was derived by comparison with progesterone-stimulated animals alone. The data presented in Table 1 (rabbit Biol. Act.) reflects the average of the results obtained for each compound by the anti-McGinty and anti-Clauberg assays relative to CDB-2914."}, "Serum cortisol in rats": {"assay": "Serum cortisol in rats", "type": "in vivo, rat", "method": "These higher levels were in the range of 3-4 ug/dl (30-40 ng/ml)."}, "[3]": {"system": "Cynomolgus monkey endometrial epithelium, uterus stroma and breast", "assay": "TUNEL apoptosis in cynomolgus monkey tissue", "type": "in vivo, Cynomolgus monkeys (Macaca fascicularis)", "conditions": "week 36, percent apoptotic cells", "method": "Apoptosis was assessed in tissue from the same animals on slides by the terminal deoxynucleotidyl transferase mediated dUTP-biotin nick end labeling (TUNEL) technique."}, "human endometrium": {"system": "human endometrium", "assay": "Six month endometriosis study: ultrasound measurements of endometrial thickness", "type": "in vivo", "conditions": "for Endometrium (mm), 1st dose: 1st dose visit; for Endometrium (mm), screening: screening (baseline)", "source_text": "Women in the study were closely monitored for changes in the structure of the endometrium. […] Comparisons were made to both baseline and visit one ultrasound measurements of endometrial thickness. […]"}, "[4]": {"molecular_target": "T1, glucocorticoid receptor (rbGR) (Oryctolagus cuniculus, UniProt P59667)", "T1 construct": "cytosol containing PR or GR were prepared in TEGMD buffer; from tissue; host or cells: thymus of estradiol-primed immature rabbits (cytosol)", "T1 sequence (P59667 1-772)": "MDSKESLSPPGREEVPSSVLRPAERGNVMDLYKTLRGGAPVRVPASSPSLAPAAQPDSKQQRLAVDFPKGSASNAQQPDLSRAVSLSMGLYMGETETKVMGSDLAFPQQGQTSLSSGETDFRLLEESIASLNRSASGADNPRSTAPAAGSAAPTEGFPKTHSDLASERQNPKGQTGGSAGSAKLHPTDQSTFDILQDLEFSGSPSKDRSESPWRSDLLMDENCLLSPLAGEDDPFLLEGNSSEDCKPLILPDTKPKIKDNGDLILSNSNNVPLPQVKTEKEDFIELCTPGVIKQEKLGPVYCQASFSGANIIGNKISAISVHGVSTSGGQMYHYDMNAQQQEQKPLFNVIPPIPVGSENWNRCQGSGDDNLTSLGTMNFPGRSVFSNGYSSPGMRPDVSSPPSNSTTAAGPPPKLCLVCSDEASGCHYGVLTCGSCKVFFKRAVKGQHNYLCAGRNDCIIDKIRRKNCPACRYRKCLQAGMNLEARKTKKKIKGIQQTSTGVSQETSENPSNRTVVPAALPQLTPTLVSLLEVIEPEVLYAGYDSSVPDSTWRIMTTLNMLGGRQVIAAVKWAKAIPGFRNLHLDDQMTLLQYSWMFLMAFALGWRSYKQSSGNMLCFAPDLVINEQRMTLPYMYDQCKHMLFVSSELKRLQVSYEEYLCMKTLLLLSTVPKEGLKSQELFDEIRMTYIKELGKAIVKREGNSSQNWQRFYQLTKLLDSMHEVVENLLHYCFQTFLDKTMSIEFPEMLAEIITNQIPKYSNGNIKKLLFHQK", "assay": "Glucocorticoid receptor binding / anti-glucocorticoid receptor activity", "set-up": "species or system rabbit", "method": "Certain antiprogestins were tested in receptor-binding assays for their ability to bind rabbit progesterone receptor (rbPR) and glucocorticoid receptor (rbGR). […] For PR binding, the cytosol was incubated with 6 nM 1,2-[^3H]progesterone (50.0 Ci/mmole) and competitors were added at concentrations from 2 to 100 nM. For binding to GR, the cytosol was incubated with 6 nM 6,7-[^3H]-dexamethasone (40 Ci/mmol) and test compounds were added at concentrations from 20 to 100 nM. After overnight incubation at 4 C, bound and unbound [^3H] steroids were separated by addition of dextran-coated charcoal and centrifugation at 2100×g for 15 min at 4 C. Supernatants containing the [3H]-steroid receptor complexes were decanted into vials containing 4 ml Optifluor (Packard Instrument Co.), vortexed, equilibrated in a liquid scintillation counter for 30 minutes and then counted for 2 minutes. […] The standards for the PR and GR assays were unlabeled progesterone and dexamethasone, respectively."}, "[5]": {"assay": "Six month endometriosis study: estrogen concentrations and biomarkers of bone resorption", "conditions": "women", "experimental": "Thirty-nine pre-menopausal adult women diagnosed with endometriosis were the subject of a six month study of Proellex™ (CDB-4124) in the treatment of endometriosis. The study included three dose levels of CDB-4124 as well as a positive control arm. The positive control was Lucrin®, a GnRH agonist, commonly used for the treatment of endometriosis (also known as Lupron®). CDB-4124 was administered in a double blinded fashion as a daily oral capsule at dosages of 12.5mg/day (n=2), 25mg/day (n=3) and 50mg/day (n=3). Another group (n=4) were injected with a slow release formulation of Lucrin® once per month as a positive control."}},
  "data": [
    {"smiles": "COCC(=O)[C@@]1(OC(C)=O)CC[C@H]2[C@@H]3CCC4=CC(=O)CCC4=C3[C@@H](c3ccc(N(C)C)cc3)C[C@@]21C", "note": "[CDB-4124, 21-methoxy-17α-acetoxy-11β-(4 N,N-dimethylaminophenyl)-19-norpregna-4,9-diene-3,20-dione]", "values": [
      {"measurement": "differences in serum corticosterone between groups", "setting": "[1]", "value": "No differences"},
      {"measurement": "rabbit Biol. Act.", "setting": "[2]; average of anti-McGinty and anti-Clauberg results relative to CDB-2914 (=1.00)", "value": 3.60},
      {"measurement": "antiprogestin activity in the rabbit uterus", "setting": "[2]; in comparison to RU 486 and CDB-2914", "value": "strong antiprogestin activity"},
      {"measurement": "levels of serum cortisol versus control group", "setting": "Serum cortisol in rats; 10 mg/kg, 21 days of chronic dosing", "value": "significantly higher"},
      {"measurement": "effect of increasing doses on serum cortisol", "setting": "Serum cortisol in rats; FIG. 2", "value": "dose-dependent"},
      {"measurement": "Breast Apo %", "setting": "[3]", "value": "2.6 ± 0.9", "unit": "%"},
      {"measurement": "Uterus epithelium Apo %", "setting": "[3]", "value": "0.5 ± 0.2", "unit": "%"},
      {"measurement": "Uterus stroma Apo %", "setting": "[3]", "value": "0.5 ± 0.1", "unit": "%"},
      {"measurement": "women exhibiting thickened endometrium after three months", "setting": "human endometrium; 12.5 mg dose (n=4)", "value": "two"},
      {"measurement": "Endometrium (mm), 1st dose", "setting": "human endometrium; 12.5 mg", "value": 8.0, "unit": "mm"},
      {"measurement": "Endometrium (mm), 3 months", "setting": "human endometrium; 12.5 mg", "value": 20.33, "unit": "mm"},
      {"measurement": "Endometrium (mm), screening", "setting": "human endometrium; 12.5 mg", "value": 7.5, "unit": "mm"},
      {"measurement": "women exhibiting thickened endometrium after three months", "setting": "human endometrium; 25 mg dose (n=4)", "value": "One"},
      {"measurement": "Endometrium (mm), 1st dose", "setting": "human endometrium; 25 mg", "value": 11.7, "unit": "mm"},
      {"measurement": "Endometrium (mm), 3 months", "setting": "human endometrium; 25 mg", "value": 19.6, "unit": "mm"},
      {"measurement": "Endometrium (mm), screening", "setting": "human endometrium; 25 mg", "value": 8.4, "unit": "mm"},
      {"measurement": "women exhibiting thickened endometrium after three months", "setting": "human endometrium; 50 mg dose (n=3)", "value": "none"},
      {"measurement": "Endometrium (mm), 1st dose", "setting": "human endometrium; 50 mg", "value": 10.8, "unit": "mm"},
      {"measurement": "Endometrium (mm), 3 months", "setting": "human endometrium; 50 mg", "value": 7.7, "unit": "mm"},
      {"measurement": "Endometrium (mm), screening", "setting": "human endometrium; 50 mg", "value": 8.0, "unit": "mm"},
      {"measurement": "anti-glucocorticoid receptor activity / glucocorticoid receptor binding", "setting": "[4]", "value": "minimal anti-glucocorticoid receptor activity"},
      {"measurement": "estrogen concentrations (mean)", "setting": "[5]; all doses of CDB-4124 (12.5, 25, 50 mg/day)", "value": "> 40", "unit": "pg/mL"},
      {"measurement": "biomarkers of bone resorption compared with baseline", "setting": "[5]; three and six months of treatment", "value": "no significant changes"}
    ]}
  ]
}
